Values joined by “and” are separate entries in the source; they are usually repeats but may differ in a detail not shown here. Identical values can stand only once. Like-named read-outs stand apart in the source and are kept apart here.
Experiments:
[1] = molecular target: T1, cyclic AMP phosphodiesterase (Canis lupus familiaris, UniProt A0A8I3NYE0); assay: effect on cyclic AMP phosphodiesterase isolated from dog's heart; format: biochemical; conditions: substrate 1.0 uM; for Inhibitory effect on PDE activity / inhibition at 10 µM / inhibition at 100 µM: falls with concentration; for Inhibitory effect on PDE activity: unit assumed; for IC50: pH 8.0, read-out: IC 50 (50% inhibition of substrate hydrolysis); for inhibition at 10 µM / inhibition at 100 µM: read-out: Inhibitory effect on PDE activity
T1 construct: Two to four grams of left ventricular muscle was obtained; from tissue; host or cells: dog left ventricular muscle, detergent-extracted particulate fraction, DEAE-cellulose pool
T1 sequence (A0A8I3NYE0 1-1135): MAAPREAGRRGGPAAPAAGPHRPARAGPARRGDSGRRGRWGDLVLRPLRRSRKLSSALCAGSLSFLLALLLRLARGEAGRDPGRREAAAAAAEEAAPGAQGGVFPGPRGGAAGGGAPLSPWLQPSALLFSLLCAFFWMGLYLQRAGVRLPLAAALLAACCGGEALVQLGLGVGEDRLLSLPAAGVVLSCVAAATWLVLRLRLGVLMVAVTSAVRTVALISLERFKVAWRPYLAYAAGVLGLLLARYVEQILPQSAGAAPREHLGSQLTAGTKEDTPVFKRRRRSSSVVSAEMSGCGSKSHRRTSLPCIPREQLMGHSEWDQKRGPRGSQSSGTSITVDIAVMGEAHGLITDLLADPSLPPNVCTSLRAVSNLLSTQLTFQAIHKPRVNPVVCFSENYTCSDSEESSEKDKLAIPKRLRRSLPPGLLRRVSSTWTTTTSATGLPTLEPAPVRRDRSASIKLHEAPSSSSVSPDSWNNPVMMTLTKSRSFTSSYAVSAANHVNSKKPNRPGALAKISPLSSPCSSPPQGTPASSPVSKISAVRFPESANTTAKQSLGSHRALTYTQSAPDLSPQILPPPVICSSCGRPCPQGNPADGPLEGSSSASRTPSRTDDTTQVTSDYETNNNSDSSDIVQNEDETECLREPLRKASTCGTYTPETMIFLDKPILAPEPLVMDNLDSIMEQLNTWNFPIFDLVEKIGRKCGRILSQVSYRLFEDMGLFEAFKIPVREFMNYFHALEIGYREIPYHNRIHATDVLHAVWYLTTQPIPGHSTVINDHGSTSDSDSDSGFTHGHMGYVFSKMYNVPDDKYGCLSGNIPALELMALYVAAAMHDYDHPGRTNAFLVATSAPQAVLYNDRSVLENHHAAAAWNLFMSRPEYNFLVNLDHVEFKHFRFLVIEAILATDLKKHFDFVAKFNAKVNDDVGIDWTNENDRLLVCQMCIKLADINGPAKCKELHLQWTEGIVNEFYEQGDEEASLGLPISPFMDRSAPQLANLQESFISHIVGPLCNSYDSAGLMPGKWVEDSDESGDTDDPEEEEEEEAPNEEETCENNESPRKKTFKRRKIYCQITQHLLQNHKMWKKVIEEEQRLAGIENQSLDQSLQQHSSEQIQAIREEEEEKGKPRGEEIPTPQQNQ

[2] = system: blood perfused papillary muscle preparation; assay: contractile power on blood perfused papillary muscle preparation; parameters: species or system dog; conditions: for activation at 0.001 mg: dose 1.0 ug; for activation at 0.003 mg: dose 3.0 ug; for activation at 0.01 mg: dose 10.0 ug; for activation at 0.03 mg: dose 30.0 ug; for ED 30 (developed tension of papillary muscle): least-square method
Protocol: Determination of contractile power on blood perfused papillary muscle preparation:
Dogs of either sex weighing 7-12 kg were anesthetized with sodium pentobarbital (30 mg/kg, i.v.). Heparin of 1000 unit/kg was administered to each animal intravenously. The animals were exsanguinated and heart was removed. The preparation was perfused through the cannulated anterior septal artery (ASA) with arterial blood from a donor dog at constant pressure of about […]. Donor dogs were anesthetized with sodium pentobarbital (30 mg/kg, i.v.). Heparin of 1000 units/kg was administered intravenously. The papillary muscle was stimulated with rectangular pulses of 5- ms duration and about 1.5 times the threshold voltage at a rate of 120 stimuli/min through bipolar electrodes. Resting tension was made to 2 g. The developed tension of papillary muscle was determined by Isometric tresducer. Detailed method was reporated by Matsumoto in Am J. Physiol. 218, 1459-1463 (1970). Test compound at the doses of 10-30 ul was injected in flowing blood in the gum tube connected to catheter. The inotropic effect of the test compounds was shown by change percent of developed tension compared with that prior to the administration of the test compounds.

[3] = system: blood-perfused sino-atrial preparation; assay: sinus rate on blood-perfused sino-atrial preparation; parameters: species or system dog; conditions: for activation at 0.001 mg: dose 1.0 ug; for activation at 0.003 mg: dose 3.0 ug; for activation at 0.01 mg: dose 10.0 ug; for activation at 0.03 mg: dose 30.0 ug
Protocol: Determination of sinus rate on blood-perfused sino-atrial preparation: Mongrel gods of either sex weighing 7-12 kg were anesthetized with sodium pentoba rbital (30 mg/kg i.v.). Heparin ob 1000 unit/kg was administered to each animal intravenously and the animals were exsanguinated. Heart was removed and put in Krebs-Henseleit solution. Catheter was inserted into blood vessel between right coronary artery and SA nodes. Right atrium and catheter were together removed. Blood supplied from carotid artery of donor dog of either sex weighing 15-25 kg, was supplied to blood vessel cather from right coronary artery and SA node under constant blood pressure of 100 mmHG by use of Peristaltic pump. The resting tension of right atrial muscle was made to 2g. The sinus rate triggered by spontaneous contraction of atrial muscle was determined on Narco physiograph Narcotrace 4). Detailed method was reported by S. Chiba, et al. in Japanese Pharmacology 25, 433-439(1975). Doses of test compounds were injected into flowing blood in gum tube connected to the near part of the catheter inserted into right coronary artery. The effects on sinus rate were shown as percent compared with the sinus ratio prior to the injection of the test compounds.

anesthetized cats = assay: cardiotonic effect on anesthetized cats; format: in vivo, cat; conditions: Felis catus; for change in vivo at 0.01 mg/kg: 0.01 mg/Kg iv; for change in vivo at 0.1 mg/kg: 0.1 mg/Kg iv; for change in vivo at 0.31 mg/kg: 0.31 mg/Kg iv
Protocol: Determination of cardiotonic effect on anesthetized cats: Male cats weighing about 3 kg were anesthetized with sodium pentobarbital (30 mg/kg, i.p.). The same anesthetic was infused intravenously at the does of 4 mg/kg/hr in order to maintain the anesthetic state and mechanically ventilated through a cuffed endotracheal tube, chest was opened by a midline incision and a catheter for measuring left ventricular pressure was inserted through apex into left ventricle and the left ventricular pressure was measured. LVdP/dt was determined by use of diffentiator from the left ventricular pressure. Systemic blood pressure was measured by the left femoral artery by a pressure transducer and heart rate was measured by a cardiotachometer triggered by blood pressure pulses. Test compound was injected into the femoral vein by use of cannule. After completion of the surgical procedures, the cats were allowed to recover about 30 minutes before drug administration. These compounds were dissolved in 0.9% physiological saline and diluted with saline. Solvent such as DMSO or DMF was also used, if necessary. Test compound of 0.1 ml/kg was used. Detailed method was reporated in J. Med. Chem. 30. 1279-87(1987).

[4] = Canis lupus familiaris, read-out: change of contractivity (%)
[5] = Canis lupus familiaris, read-out: change of sinus rate (%)

“6-(2-methylimidazol-1-yl)-(4H)-3,1-benzimidazol-2-one” showed an Inhibitory effect on PDE activity ([1]; 0.1 uM test compound) of 95.9%, an Inhibitory effect on PDE activity ([1]; 1 uM test compound) of 86.8% and an Inhibitory effect on PDE activity ([1]; 10 uM test compound) of 62.6%. The Inhibitory effect on PDE activity ([1]; 100 uM test compound) was 37.9% and the IC50 [1] was 32.4 µM.
In the case of `Cc1nccn1-c1ccc2c(c1)COC(=O)N2` [6-(2-methylimidazol-1-yl)-(4H)-3,1-benzoxazine-2-one], the activation at 0.001 mg [2, 4] is reported as 0%, the activation at 0.003 mg [2, 4] is reported as 2.44% and the activation at 0.01 mg [2, 4] is reported as 8.57%. The activation at 0.03 mg [2, 4] was 13.5%, the “ED 30 (developed tension of papillary muscle)” value [2] was > 1000 µg and the inhibition at 10 µM ([1]; 10 uM test compound) was 51.7%. For the same molecule, the inhibition at 100 µM ([1]; 100 uM test compound) was 35.8%, the IC50 [1] was 12.8 µM and the activation at 0.001 mg [3, 5] was 0%. For the same molecule, the activation at 0.003 mg [3, 5] was 0%, the activation at 0.01 mg [3, 5] was 0.86% and the activation at 0.03 mg [3, 5] was 3.42%.
For `Cc1cn(-c2cc(C)c3c(c2)COC(=O)N3)cn1` [8-methyl-6-(4-methylimidazol-1-yl)-(4H)-3,1-benzoxazin-2-one], the change in vivo at 0.01 mg/kg (anesthetized cats; read-out: HR (%)) was 2%, the change in vivo at 0.01 mg/kg (anesthetized cats; read-out: LV dp/dt (%)) was 20% and the change in vivo at 0.01 mg/kg (anesthetized cats; read-out: LVP (%)) was 0.1%. For the same molecule, the change in vivo at 0.01 mg/kg (anesthetized cats; read-out: SBP (%)) was -1.7%, the change in vivo at 0.01 mg/kg (anesthetized cats; read-out: dBP) was -8.5% and the change in vivo at 0.01 mg/kg (anesthetized cats; read-out: mBP (%)) was -5.5%. For the same molecule, the change in vivo at 0.1 mg/kg (anesthetized cats; read-out: HR (%)) was 7.5%, the change in vivo at 0.1 mg/kg (anesthetized cats; read-out: LV dp/dt (%)) was 50% and the change in vivo at 0.1 mg/kg (anesthetized cats; read-out: LVP (%)) was 4.4%. The change in vivo at 0.1 mg/kg (anesthetized cats; read-out: SBP (%)) was -6.6%, the change in vivo at 0.1 mg/kg (anesthetized cats; read-out: dBP) was -20% and the change in vivo at 0.1 mg/kg (anesthetized cats; read-out: mBP (%)) was -13.9%. It also gave a change in vivo at 0.31 mg/kg (anesthetized cats; read-out: HR (%)) of 4.4%, a change in vivo at 0.31 mg/kg (anesthetized cats; read-out: LV dp/dt (%)) of 40% and a change in vivo at 0.31 mg/kg (anesthetized cats; read-out: LVP (%)) of 1.2%. For the same molecule, the change in vivo at 0.31 mg/kg (anesthetized cats; read-out: SBP (%)) was -3.4%, the change in vivo at 0.31 mg/kg (anesthetized cats; read-out: dBP) was -14.3% and the change in vivo at 0.31 mg/kg (anesthetized cats; read-out: mBP (%)) was -9.3%. The activation at 0.0001 mg ([2]; Canis lupus familiaris, dose 0.1 ug, read-out: change of contractivity (%)) was 4.3%, the activation at 0.0003 mg ([2]; Canis lupus familiaris, dose 0.3 ug, read-out: change of contractivity (%)) was 8.7% and the activation at 0.001 mg [2, 4] was 23.9%. For the same molecule, the activation at 0.003 mg [2, 4] was 79.2%, the “ED 30 (developed tension of papillary muscle)” value [2] was 1.2 µg and the IC50 [1] was 2.4 µM and 4.3 µM and 4.05 µM. It also gave an activation at 0.0001 mg ([3]; Canis lupus familiaris, dose 0.1 ug, read-out: change of sinus rate (%)) of 0.8%, an activation at 0.0003 mg ([3]; Canis lupus familiaris, dose 0.3 ug, read-out: change of sinus rate (%)) of 1.7% and an activation at 0.001 mg [3, 5] of 6.6%. For the same molecule, the activation at 0.003 mg [3, 5] was 5.8% and the “change of sinus rate (%)” value ([3]; at the ED 30 dose) was “+5.0%”.
With `O=C1Nc2ccc(-n3cnc4ccccc43)cc2CO1` [6-(benzimidazol-1-yl)-(4H)-3,1-benzoxazin-2-one] the activation at 0.001 mg [2, 4] was 0%, the activation at 0.003 mg [2, 4] was 1.13% and the activation at 0.01 mg [2, 4] was 2.63%. The activation at 0.03 mg [2, 4] was 5.24%, the “ED 30 (developed tension of papillary muscle)” value [2] was > 1000 µg and the inhibition at 10 µM ([1]; 10 uM test compound) was 61.6%. The inhibition at 100 µM ([1]; 100 uM test compound) was 30.1%, the activation at 0.001 mg [3, 5] was 0% and the activation at 0.003 mg [3, 5] was 0%. For the same molecule, the activation at 0.01 mg [3, 5] was 0.3% and the activation at 0.03 mg [3, 5] was 0.75%.
Molecule `O=C1Nc2ccc(-n3ccnc3)cc2CO1` [6-(imidazol-1-yl)-(4H)-3,1-benzoxazin-2-one] has an activation at 0.001 mg [2, 4] of 3.33%, an activation at 0.003 mg [2, 4] of 6.95% and an activation at 0.01 mg [2, 4] of 9.76%. For the same molecule, the activation at 0.03 mg [2, 4] was 16.2%, the “ED 30 (developed tension of papillary muscle)” value [2] was > 1000 µg and the inhibition at 10 µM ([1]; 10 uM test compound) was 60%. For the same molecule, the inhibition at 100 µM ([1]; 100 uM test compound) was 41.8%, the IC50 [1] was 31 µM and 12.7 µM and the activation at 0.001 mg [3, 5] was 0%. For the same molecule, the activation at 0.003 mg [3, 5] was 0.84%, the activation at 0.01 mg [3, 5] was 2.52% and the activation at 0.03 mg [3, 5] was 6.67%.

From patent publication US5171851A, “Imidazole substituted benzoxazine or benzothiazine derivatives” (Dong-A Pharm. Co., Ltd., priority 1990, dated 1992)
